From US9067884B2, “Pyrrole compounds that modulate HSP90 activity” (Synta Pharmaceuticals Corp., priority 2008, dated 2015)

Tests used:
[1] = test system: Her2; assay: Degradation of Her2 in BT-474 cells (Method 1, Western blot); type: cell-based, Human; settings: 0.5 μM, overnight
Experimental: Human high-Her2 breast carcinoma BT474 (HTB-20), SK-BR-3 (HTB-30) and MCF-7 breast carcinoma (HTB-22) from American Type Culture Collection, VA, USA were grown in Dulbecco's modified Eagle's medium with 4 mM L-glutamine and antibiotics (100 IU/ml penicillin and 100 μg/ml streptomycine; GibcoBRL). To obtain exponential cell growth, cells were trypsinized, counted and seeded at a cell density of 0.5×10^6 cells/ml regularly, every 3 days. All experiments were performed on day 1 after cell passage.
BT-474 cells are treated with 0.5 μM, 2 μM, or 5 μM of 17AAG (a positive control) or 0.5 μM, 2 μM, or 5 μM of a compound of the invention overnight in DMEM medium. After treatment, each cytoplasmic sample, is prepared from 1×10^6 cells by incubation of cell lysis buffer (#9803, Cell Signaling Technology) on ice for 10 minutes. The resulting supernatant used as the cytosol fractions is dissolved with sample buffer for SDS-PAGE and run on a SDS-PAGE gel, blotted onto a nitrocellulose membrane by using semi-dry transfer. Non-specific binding to nitrocellulose is blocked with 5% skim milk in TBS with 0.5% Tween at room temperature for 1 hour, then probed with anti-Her2/ErB2 mAb (rabbit IgG, #2242, Cell Signaling) and anti-Tubulin (T9026, Sigma) as housekeeping control protein. […]

[2] = test system: Hsp90; assay: IC50 range of compounds of the invention for  inhibition of Hsp90 (Method 2: MV-4-11 cells, Cell Counting Kit-8); type: cell-based, human; settings: text: IC50 range for Her2 degradation, 72 hours, cell survival by Cell Counting Kit-8
Experimental: MV-4-11 cells (20,000 cells/well) were cultured in 96-well plates and maintained at 37° C. for several hours. The cells were treated with a compound of the invention or 17AAG (a positive control) at various concentrations and incubated at 37° C. for 72 hours. Cell survival was measured with Cell Counting Kit-8 (Dojindo Laboratories, Cat. # CK04).

| Structure (SMILES) | degradation of Her2 [1] | IC50 [2] [nM] |
| --- | --- | --- |
| C=CCNC1=C2C[C@@H](C)C[C@H](OC)[C@H](O)[C@@H](C)/C=C(\C)[C@H](OC(N)=O)[C@@H](OC)/C=C\C=C(/C)C(=O)NC(=CC1=O)C2=O [Compound 17AAG, 17-allylamino-17-demethoxygeldanamycin] | partial degradation of Her2 |  |
| CCNC(=O)c1ccc(-c2cc(C(C)C)c(O)cc2O)n1-c1ccc(N(C)C)cc1 [Compound 3, 5-(2,4-dihydroxy-5-isopropylphenyl)-1-(4-(dimethylamino)phenyl)-N-ethyl-1H-pyrrole-2-carboxamide] |  | > 1000 |
